Test results taken from US6689395B2, “Pesticidal compositions containing plant essential oils against mites” (priority 1999, dated 2004).

Test system: mold mite
Assay: Toxicity of plant essential oils fogged into food cartons against mold mites
Type: in vivo
Conditions: for control of the mites (pest mortality): about 1 g test substance fogged into half pint milk carton, about 100 mites per carton, cartons opened at 24 hour intervals, from day one; for control of the mites (mortality): repeated experiment, cartons not opened until day ten
Description: Half pint milk cartons were used as sample food containers. The composition of the carton is multilayer paper, plastic and foil. The last two inner layers are foil and plastic; the food inside the carton is in contact with the plastic. Utilizing a ULV sprayer, the plant essential oils were fogged into the container. Approximately one gram of liquid test substance (i.e. plant essential oil) was deposited into the container. The desired amount of food and approximately 100 mites per carton were then added to the container and the carton was sealed. The materials tested included 2-phenyl ethyl alcohol, 2-phenyl ethyl propionate, trans-anethole, and benzyl alcohol. The cartons were opened at 24 hour intervals, a new carton each interval, to observe for pest mortality and the results were recorded.
The experiment was repeated, but the cartons were not opened until day ten.

In the case of `OCCc1ccccc1` [2-phenyl ethyl alcohol], the “control of the mites (pest mortality)” value is reported as “good control” and the “control of the mites (mortality)” value is reported as “best results of mortality”.
For `CCC(=O)OCCc1ccccc1` [2-phenyl ethyl propionate], the “control of the mites (pest mortality)” value was “good control” and the “control of the mites (mortality)” value was “best results of mortality”.
